Test results: patent publication US20200239530A1, “COMPOUNDS AND METHODS OF MODULATING PROTEIN DEGRADATION” (Vividion Therapeutics, Inc., priority 2017, published 2020)

Tests used:
[1] = target: T1, HECTD1 E3 ubiquitin-protein ligase HECTD1 (Homo sapiens, UniProt Q9ULT8); assay: Cysteine liganding, probe competition; type: binding
T1 construct: Cells were resuspended in cold PBS on ice and sonicated with a probe sonicator to achieve lysis; endogenous in cells
Procedure, shortened: (§1)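 Steps: sonicate cells in cold PBS; treat 5 mg/ml lysate with compound (25° C, 1 hr); add desthiobiotin iodoacetamide probe from a 10 mM stock (25° C, 1 hr); precipitate, reduce, alkylate, digest with trypsin; capture labelled peptides on streptavidin for analysis.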

[2] = target: T2, TAP2 Antigen peptide transporter 2 (Homo sapiens, UniProt Q03519); assay: Cysteine liganding, probe competition; type: binding; settings: for Liganded: TAP2 Res# 641, uniprot Q03519
T2 construct: Cells were resuspended in cold PBS on ice and sonicated with a probe sonicator to achieve lysis; endogenous in cells
T2 sequence (Q03519 1-686): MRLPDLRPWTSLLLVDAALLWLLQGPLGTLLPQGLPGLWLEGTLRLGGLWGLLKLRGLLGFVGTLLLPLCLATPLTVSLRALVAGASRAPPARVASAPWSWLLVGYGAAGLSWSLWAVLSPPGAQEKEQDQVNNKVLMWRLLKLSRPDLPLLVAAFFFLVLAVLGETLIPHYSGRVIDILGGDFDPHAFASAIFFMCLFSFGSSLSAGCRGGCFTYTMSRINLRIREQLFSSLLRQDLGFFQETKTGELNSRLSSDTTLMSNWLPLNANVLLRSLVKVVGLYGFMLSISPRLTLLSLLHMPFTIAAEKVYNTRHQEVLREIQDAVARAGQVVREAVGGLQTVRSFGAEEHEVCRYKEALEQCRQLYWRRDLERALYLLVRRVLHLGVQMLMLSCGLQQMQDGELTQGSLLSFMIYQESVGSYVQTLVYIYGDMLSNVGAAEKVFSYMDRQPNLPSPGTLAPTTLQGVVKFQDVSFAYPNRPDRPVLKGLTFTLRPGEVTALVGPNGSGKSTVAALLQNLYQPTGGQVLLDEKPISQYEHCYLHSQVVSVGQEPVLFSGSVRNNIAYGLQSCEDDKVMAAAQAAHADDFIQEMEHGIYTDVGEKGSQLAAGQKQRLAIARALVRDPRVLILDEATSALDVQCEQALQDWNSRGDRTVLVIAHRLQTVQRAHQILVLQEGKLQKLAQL
T2 sequence (Q03518 1-748 partner): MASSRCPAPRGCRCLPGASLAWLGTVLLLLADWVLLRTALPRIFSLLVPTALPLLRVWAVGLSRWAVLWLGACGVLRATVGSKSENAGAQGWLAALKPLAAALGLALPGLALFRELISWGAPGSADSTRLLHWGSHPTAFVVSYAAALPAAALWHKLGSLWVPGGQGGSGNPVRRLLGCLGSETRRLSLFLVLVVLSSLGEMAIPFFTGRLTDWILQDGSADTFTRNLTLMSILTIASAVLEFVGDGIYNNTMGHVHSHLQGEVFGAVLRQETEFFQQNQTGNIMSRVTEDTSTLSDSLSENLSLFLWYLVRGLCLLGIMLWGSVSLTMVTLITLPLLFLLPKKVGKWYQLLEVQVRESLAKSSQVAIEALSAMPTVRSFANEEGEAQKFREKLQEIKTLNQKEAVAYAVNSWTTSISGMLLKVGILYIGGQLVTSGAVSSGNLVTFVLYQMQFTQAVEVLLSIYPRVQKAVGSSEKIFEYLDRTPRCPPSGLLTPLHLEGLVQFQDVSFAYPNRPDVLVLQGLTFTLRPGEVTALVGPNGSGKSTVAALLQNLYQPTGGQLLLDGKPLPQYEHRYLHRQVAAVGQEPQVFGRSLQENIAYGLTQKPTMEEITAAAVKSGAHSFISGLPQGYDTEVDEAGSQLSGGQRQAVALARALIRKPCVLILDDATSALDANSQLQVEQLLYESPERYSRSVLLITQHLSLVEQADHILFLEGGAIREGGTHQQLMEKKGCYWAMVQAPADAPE
Procedure, shortened: as §1

T1 sequence (Q9ULT8 whole entry): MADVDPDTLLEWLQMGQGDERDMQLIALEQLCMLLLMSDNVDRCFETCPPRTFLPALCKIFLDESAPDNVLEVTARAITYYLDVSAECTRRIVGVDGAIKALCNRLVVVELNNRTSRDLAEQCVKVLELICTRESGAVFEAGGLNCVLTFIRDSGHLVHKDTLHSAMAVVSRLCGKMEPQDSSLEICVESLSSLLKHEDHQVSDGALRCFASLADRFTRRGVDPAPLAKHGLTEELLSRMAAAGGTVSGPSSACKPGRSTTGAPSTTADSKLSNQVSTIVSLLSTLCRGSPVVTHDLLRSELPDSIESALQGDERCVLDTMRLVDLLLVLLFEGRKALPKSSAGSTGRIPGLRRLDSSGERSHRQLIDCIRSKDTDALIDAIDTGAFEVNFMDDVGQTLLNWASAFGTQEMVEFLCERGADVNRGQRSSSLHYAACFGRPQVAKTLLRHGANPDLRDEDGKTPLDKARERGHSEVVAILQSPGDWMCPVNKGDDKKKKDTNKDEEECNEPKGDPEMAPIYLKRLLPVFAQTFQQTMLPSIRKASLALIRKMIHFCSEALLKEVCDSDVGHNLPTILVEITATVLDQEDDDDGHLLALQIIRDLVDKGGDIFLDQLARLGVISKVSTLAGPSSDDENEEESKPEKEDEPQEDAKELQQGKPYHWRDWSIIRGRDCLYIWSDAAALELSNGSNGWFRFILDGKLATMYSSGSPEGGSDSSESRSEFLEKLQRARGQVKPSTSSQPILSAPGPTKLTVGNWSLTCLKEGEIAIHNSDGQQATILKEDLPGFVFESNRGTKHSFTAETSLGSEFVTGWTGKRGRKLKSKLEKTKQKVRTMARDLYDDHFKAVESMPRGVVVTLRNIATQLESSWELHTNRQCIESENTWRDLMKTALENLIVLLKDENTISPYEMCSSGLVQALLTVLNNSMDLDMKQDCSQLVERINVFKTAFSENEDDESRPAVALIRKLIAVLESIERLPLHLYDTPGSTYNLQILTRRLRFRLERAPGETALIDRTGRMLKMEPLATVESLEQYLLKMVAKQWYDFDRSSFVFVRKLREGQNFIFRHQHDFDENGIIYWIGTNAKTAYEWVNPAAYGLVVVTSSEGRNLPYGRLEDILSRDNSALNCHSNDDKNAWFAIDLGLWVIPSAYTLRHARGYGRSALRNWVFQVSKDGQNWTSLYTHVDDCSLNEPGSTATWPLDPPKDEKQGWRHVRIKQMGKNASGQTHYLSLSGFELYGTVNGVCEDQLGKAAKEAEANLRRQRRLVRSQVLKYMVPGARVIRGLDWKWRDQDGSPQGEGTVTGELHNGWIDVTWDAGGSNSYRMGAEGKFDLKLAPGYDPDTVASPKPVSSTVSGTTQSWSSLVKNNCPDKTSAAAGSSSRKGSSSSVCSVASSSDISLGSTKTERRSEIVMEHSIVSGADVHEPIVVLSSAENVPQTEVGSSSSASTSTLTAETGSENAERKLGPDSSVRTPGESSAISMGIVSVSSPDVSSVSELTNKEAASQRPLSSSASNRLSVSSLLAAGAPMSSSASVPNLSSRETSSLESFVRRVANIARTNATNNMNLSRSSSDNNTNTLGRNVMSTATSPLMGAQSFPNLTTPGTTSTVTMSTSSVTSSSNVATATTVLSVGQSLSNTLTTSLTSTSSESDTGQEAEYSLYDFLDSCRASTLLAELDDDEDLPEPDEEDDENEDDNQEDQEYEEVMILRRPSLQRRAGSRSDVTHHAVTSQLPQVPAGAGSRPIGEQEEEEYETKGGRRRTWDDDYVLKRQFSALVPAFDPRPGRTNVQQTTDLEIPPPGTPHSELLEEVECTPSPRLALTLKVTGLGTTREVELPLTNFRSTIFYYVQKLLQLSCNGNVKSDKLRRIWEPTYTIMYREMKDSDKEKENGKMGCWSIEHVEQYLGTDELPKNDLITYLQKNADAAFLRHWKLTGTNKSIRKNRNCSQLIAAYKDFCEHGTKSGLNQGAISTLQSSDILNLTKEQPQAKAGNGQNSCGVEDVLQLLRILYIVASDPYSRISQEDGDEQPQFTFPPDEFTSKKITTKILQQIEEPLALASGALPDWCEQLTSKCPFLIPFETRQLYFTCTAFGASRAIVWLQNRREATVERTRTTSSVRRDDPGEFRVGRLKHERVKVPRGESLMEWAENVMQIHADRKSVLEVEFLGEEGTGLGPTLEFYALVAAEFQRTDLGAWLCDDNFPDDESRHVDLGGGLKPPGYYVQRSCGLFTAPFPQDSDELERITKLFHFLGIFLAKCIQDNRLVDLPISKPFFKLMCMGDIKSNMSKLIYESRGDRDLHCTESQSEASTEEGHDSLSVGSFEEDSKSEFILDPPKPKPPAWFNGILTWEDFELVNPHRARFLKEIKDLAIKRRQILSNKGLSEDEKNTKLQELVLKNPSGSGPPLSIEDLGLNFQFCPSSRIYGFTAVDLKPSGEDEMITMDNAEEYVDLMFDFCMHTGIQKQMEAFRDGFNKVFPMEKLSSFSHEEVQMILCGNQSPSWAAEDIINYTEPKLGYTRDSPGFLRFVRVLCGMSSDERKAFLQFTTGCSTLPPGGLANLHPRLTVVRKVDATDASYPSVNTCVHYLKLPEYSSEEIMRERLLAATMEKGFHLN

| SMILES | Liganded ([1]; HECTD1 Res# 1855, uniprot Q9ULT8) | Liganded [2] | 100 ave ([1]; uniprot Q9ULT8) | 500 ave ([1]; uniprot Q9ULT8) | 100 Max ([1]; uniprot Q9ULT8, unit assumed) | 500 Max ([1]; uniprot Q9ULT8, unit assumed) | 100 ave ([2]; uniprot Q03519) | 500 Max ([2]; uniprot Q03519) | 500 ave ([2]; uniprot Q03519) | 100 Max ([2]; uniprot Q03519, in % (unit assumed)) |
| --- | --- | --- | --- | --- | --- | --- | --- | --- | --- | --- |
| COc1ccc2c(c1)CCCN2C(=O)CCl [KB02] | YES | YES | – | – | – | – | – | – | – | – |
| O=C(CCl)Nc1cc(C(F)(F)F)cc(C(F)(F)F)c1 [KBO3] | – | YES | 0.1 | 72.6 | 1.2% | 72.6% | 70.57 | 94.0932 | 94.0932 | 71.9622 |
